From patent US12435061B2 (priority 2020, dated 2025)
In brackets after ≈: the same amount, converted by molar mass. Like-named read-outs stand apart in the source and are kept apart here. Values belong to the compound of their own block, whether it stands above or below them.

Columns and labels:
[1] = target: hTRPV3 (Homo sapiens (Human), UniProt Q8NET8); assay: Whole-cell patch clamp, hTRPV3 Phase 1 / Phase 2 currents; assay type: cell-based
How it was run: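 Whole-cell recordings on induced TRPV3 cells replated on coverslips, held at −40 mV with 400 ms ramps from −120 to +100 mV every 5 s; currents read at −80 and +80 mV. Ringer's external solution; current activated by heating to ≥28 °C or 20 μM 2-APB.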

[2] = Metabolic Stability assay, rat liver microsomes; assay type: in vitro ADME
Method: Metabolic Stability assay: The metabolic stability was determined by adding compound dissolved in DMSO to human or rat, liver microsomes. Briefly, assays were run with a starting concentration of 1 μM test article. The reaction was started by addition of NADPH regeneration components at 37° C. at which time an aliquot was immediately quenched in ice-cold acetonitrile/MeOH/H2O solution. Reaction mixture was incubated at 37° C. on a shaker, and additional aliquots were taken at 7, 15, 30 and 60 minutes. Following quench and centrifugation, samples were analyzed on HPLC/MS/MS.

[3] = Aqueous solubility assay in Normal Ringer Solution; conditions: Normal Ringer Solution; for solubility at 40 min: saline or isotonic, kinetic from dmso stock; for Solubility Ringer (nM): room temperature
Method: Following vortex and incubation for a sufficient time (e.g. 40 minutes at room temperature), solutions were filtered, quenched with acetonitrile, and analyzed by Liquid Chromotography. Solubility Limits were determined by comparison to a standard curve.

[4] = Phase 1 current, human TRPV3, read-out: hTRPV3 (nM) Phase 1
[5] = Phase 1 current, inward, whole-cell patch clamp, read-out: hTRPV3 Patch P1 Inwd
[6] = Phase 1 current, read-out: hTRPV3 (nM) (Phase 1)
[7] = Phase 2 current, inward, whole-cell patch clamp, read-out: hTRPV3 Patch P2 Inwd
[8] = Phase 2 current, read-out: hTRPV3 (nM) (Phase 2)

hTRPV3, sequence (Q8NET8 whole entry): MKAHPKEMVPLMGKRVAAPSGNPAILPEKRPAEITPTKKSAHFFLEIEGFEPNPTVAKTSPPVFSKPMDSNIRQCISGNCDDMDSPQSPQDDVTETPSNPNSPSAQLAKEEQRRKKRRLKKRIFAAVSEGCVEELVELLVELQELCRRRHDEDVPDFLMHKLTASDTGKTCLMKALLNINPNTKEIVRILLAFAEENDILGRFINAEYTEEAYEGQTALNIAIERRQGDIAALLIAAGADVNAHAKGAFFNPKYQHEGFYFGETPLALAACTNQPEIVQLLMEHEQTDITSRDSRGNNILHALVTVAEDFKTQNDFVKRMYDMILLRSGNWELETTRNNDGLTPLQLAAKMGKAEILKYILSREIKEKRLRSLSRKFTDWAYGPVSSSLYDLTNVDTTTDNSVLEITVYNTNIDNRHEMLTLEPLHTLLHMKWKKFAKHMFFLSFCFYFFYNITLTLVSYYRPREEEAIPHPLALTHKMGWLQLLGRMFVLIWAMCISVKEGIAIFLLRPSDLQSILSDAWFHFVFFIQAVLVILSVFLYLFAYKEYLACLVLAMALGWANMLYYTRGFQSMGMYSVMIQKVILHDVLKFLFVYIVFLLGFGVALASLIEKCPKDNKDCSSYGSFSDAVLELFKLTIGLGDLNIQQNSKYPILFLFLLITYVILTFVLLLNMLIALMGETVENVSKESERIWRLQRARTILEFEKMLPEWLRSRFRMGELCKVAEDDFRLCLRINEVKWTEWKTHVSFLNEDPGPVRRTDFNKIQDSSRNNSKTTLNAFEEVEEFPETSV

Structure (SMILES): CCc1ccccc1-c1ccc(C2CCN(C(=O)c3ccccn3)C2)c(CO)c1 (stereo not shown) [Compound 2-27, (3-(2′-ethyl-3-(hydroxymethyl)biphenyl-4-yl)pyrrolidin-1-yl)(pyridin-2-yl)methanone]
- IC50 [1, 4]: 73 nM
- IC50 [1, 5]: 10 to 100 nM
- half-life at 1 μM ([2]; read-out: LM T1/2 (min) rat): 12.9 min

Structure (SMILES): Cc1cccc(C(=O)N2CCC(c3ccc(Oc4ccccc4C(C)C)cc3C(N)=O)C2)n1 (stereo not shown) [Compound 2-33, 5-(2-isopropylphenoxy)-2-(1-(6-methylpicolinoyl)pyrrolidin-3-yl)benzamide]
- IC50 [1, 4]: 645 nM
- IC50 [1, 5]: 100 to 1000 nM
- half-life at 1 μM ([2]; read-out: LM T1/2 (min) rat): 11 min

Structure (SMILES): CCc1ccccc1-c1ccc(C2CCN(C(=O)c3ccc(F)cn3)C2)c(C(N)=O)c1 (stereo not shown) [Compound 2-34, 2′-ethyl-4-(1-(5-fluoropicolinoyl)pyrrolidin-3-yl)biphenyl-3-carboxamide]
- IC50 [1, 4]: 337 nM
- IC50 [1, 5]: 100 to 1000 nM
- half-life at 1 μM ([2]; read-out: LM T1/2 (min) rat): 26.4 min

Structure (SMILES): CC(C)c1ccccc1Oc1ccc(C2CCN(C(=O)Cc3ccccn3)C2)c(CO)c1 (stereo not shown) [Compound 2-116]
- IC50 [1, 4]: ~3500 nM
- IC50 ([1]; Phase 2 current, human TRPV3, read-out: hTRPV3 (nM) Phase 2): 2600 nM
- half-life at 1 μM ([2]; read-out: LM T1/2 (min) rat): 3.62 min

- solubility at 40 min [3]: > 26.8 µM
- half-life at 1 μM ([2]; read-out: LM T1/2 (min) (rat)): 16.3 min
Structure (SMILES): Cc1ccccc1C(O)c1ccc(N2CC[C@H](Oc3ncccc3F)C2)c(CO)c1 (stereo partly drawn) [Compound 1-231, (4-((S)-3-(3-fluoropyridin-2-yloxy)pyrrolidin-1-yl)-3-(hydroxymethyl)phenyl)(o-tolyl)methanol]

Structure (SMILES): CC(C)(C)OC(=O)N1CC=C(c2ccc(N3CC[C@H](Oc4ccc(C(F)(F)F)cn4)C3)c(CO)c2)CC1 [Compound 1-272, (S)-tert-butyl 4-(3-(hydroxymethyl)-4-(3-(5-(trifluoromethyl)pyridin-2-yloxy)pyrrolidin-1-yl)phenyl)-5,6-dihydropyridine-1 (2H)-carboxylate]
- IC50 [1, 5]: > 1000 nM
- IC50 [1, 6]: > 3200 nM
- Solubility Ringer (nM) [3]: BLQ

Structure (SMILES): OCc1cc(-c2ccccc2)ccc1N1CC[C@@H](Oc2ccc(C(F)(F)F)cn2)C1 [Compound 1-110, (R)-(4-(3-(5-(trifluoromethyl)pyridin-2-yloxy)pyrrolidin-1-yl)biphenyl-3-yl)methanol]
- IC50 [1, 5]: 100 to 1000 nM
- IC50 [1, 6]: 710 nM
- IC50 [1, 7]: 100 to 1000 nM
- IC50 [1, 8]: 685 nM
- Solubility Ringer (nM) [3]: BLQ

Structure (SMILES): CCc1ccccc1-c1ccc(N2CC[C@H](Oc3ncccc3F)C2)c(CO)n1 [Compound 1-204, (S)-(6-(2-ethylphenyl)-3-(3-(3-fluoropyridin-2-yloxy)pyrrolidin-1-yl)pyridin-2-yl)methanol]
- IC50 [1, 5]: > 1000 nM
- IC50 [1, 6]: 2670 nM
- solubility at 40 min [3]: > 1.8 µM

Structure (SMILES): CC(C)c1ccccc1Oc1ccc(C2CCN(C(=O)c3ccc(Cl)cn3)C2)c(C(N)=O)c1 (stereo not shown) [Compound 2-32, 2-(1-(5-chloropicolinoyl)pyrrolidin-3-yl)-5-(2-isopropylphenoxy)benzamide]
- IC50 [1, 4]: 677 nM
- IC50 [1, 5]: 100 to 1000 nM
- half-life at 1 μM ([2]; read-out: LM T1/2 (min) rat): 6.86 min

Structure (SMILES): CCc1ccccc1C(O)c1ccc(N2CC[C@H](Oc3ncccc3Cl)C2)c(CO)c1 (stereo partly drawn) [Compound 1-257, (4-((S)-3-(3-chloropyridin-2-yloxy)pyrrolidin-1-yl)-3-(hydroxymethyl)phenyl)(2-ethylphenyl)methanol]
- IC50 [1, 5]: 100 to 1000 nM
- IC50 [1, 6]: 1060 nM
- IC50 [1, 7]: > 1000 nM
- IC50 [1, 8]: 1110 nM
- solubility at 40 min [3]: > 6.6 µM

Structure (SMILES): OCc1cc(Oc2ccc(Cl)cc2)ccc1N1CC[C@H](Oc2ncccc2Cl)C1 [Compound 1-249, (S)-(5-(4-chlorophenoxy)-2-(3-(3-chloropyridin-2-yloxy)pyrrolidin-1-yl)phenyl)methanol]
- IC50 [1, 5]: 10 to 100 nM
- IC50 [1, 6]: 22.1 nM
- Solubility Ringer (nM) [3]: BLQ

Structure (SMILES): Cc1ccc(C(=O)N2CCC(c3ccc(-c4ccccc4C(C)C)cc3CO)C2)nc1 (stereo not shown) [Compound 2-79]
- IC50 [1, 4]: 19.8 nM
- IC50 [1, 5]: 10 to 100 nM
- solubility at 40 min [3]: 7.38 µM (≈ 3.06 µg/mL)

Structure (SMILES): OCc1cc(-c2ccccc2)ccc1N1CC[C@H](Nc2nc(C(F)(F)F)cs2)C1 [Compound 1-394, (S)-(4-(3-(4-(trifluoromethyl)thiazol-2-ylamino)pyrrolidin-1-yl)biphenyl-3-yl)methanol]
- IC50 [1, 5]: 100 to 1000 nM
- IC50 [1, 6]: 616 nM
- IC50 [1, 7]: 100 to 1000 nM
- IC50 [1, 8]: 496 nM
- solubility at 40 min [3]: 1.87 µM (≈ 0.784 µg/mL)

Structure (SMILES): N#Cc1ccccc1-c1ccc(N2CC[C@H](Oc3ccc(C(F)(F)F)cn3)C2)c(CO)c1 [Compound 1-155]
- IC50 [1, 5]: 100 to 1000 nM
- Solubility Ringer (nM) [3]: BLQ

Structure (SMILES): OCc1cc(Oc2cccc(Cl)c2)ccc1N1CC[C@H](Oc2ncccc2Cl)C1 [Compound 1-248, (S)-(5-(3-chlorophenoxy)-2-(3-(3-chloropyridin-2-yloxy)pyrrolidin-1-yl)phenyl)methanol]
- IC50 [1, 5]: 10 to 100 nM
- IC50 [1, 6]: 12.3 nM
- Solubility Ringer (nM) [3]: BLQ
